Common to all, as to type: cell-based, human
Experiment [1] relates to A2780-ADR cells. Briefly: MTT viability assay, reversal of MDR in P-gp overexpressing A2780-ADR cells. Conditions: A2780-ADR cells; for Mean % Survival: mean of 12 samples; for % Survival (individual sample): single samples (trials 1-3, samples 1-4). The method, then:
(§1) The chemotherapeutic sensitive DU145 human prostate cancer cells and the multidrug resistant sub-line, DU145-TXR, were generous gifts from Dr. Evan Keller (University of Michigan, Ann Arbor, MI). The MDR, P-gp overexpressing DU145-TXR cells were maintained under positive selection pressure by supplementing complete medium with 10 nM paclitaxel (Acros Organics, NJ). In addition to the aforementioned cell lines, the chemotherapeutic sensitive A2780 ovarian cancer cells (93112519, Sigma) and the multidrug resistant A2780-ADR (93112520, Sigma) were maintained in complete RPMI media consisting of RPMI-1640 with L-glutamine, 10% fetal bovine serum (FBS; Corning), 100 U/mL penicillin and 100 μg/mL streptomycin in a humidified incubator at 37 °C and 5% CO2. The MDR, P-gp overexpressing A2780-ADR cell line was maintained under positive selection pressure by supplementing complete medium with 100 nM doxorubicin (Fisher Scientific, NJ). The non-cancerous HFL1 (human lung fibroblast) cell line cell line was a generous gift from Dr. Robert Harrod (Southern Methodist University, Dallas, TX) and was maintained in complete F12K media consisting of F12K with 10% fetal bovine serum, 100 U/mL penicillin, and 100 µg/mL streptomycin (Gibco). Flasks and 96 well plates that were used with the non-cancerous line HFL1 were pre-treated with 0.1 mg/ml Collagen Type 1 (Gibco) and rinsed with PBS (Fisher).
(§2) Culture of the DU145, DU145-TXR, and HFL1 cell lines was performed as described in [8]. Culture of the A2780 and A2780-ADR cell lines was performed as described in [9]. MTT assays were performed as described in [8] with minor modifications. LC-MS/MS accumulation assays were performed as described in {Nanayakkara, 2018 #173} [9] with some modifications. […] The inhibitor concentration was lowered to 15 µM here, as the goal of the study was to identify compounds that were effective in reversing MDR at low concentrations, and to determine if the expanded virtual-assisted methods improved on our first-draft attempt. Compounds 56–98 were pre-screened using Resazurin cell viability assays: cells were incubated with 15 µM compound with or without 500 nM PTX for 48 hours, after which cell survival was assessed similar to [39]. Data represent the mean of two separate experiments, with n = 3 samples per experiment (n = 6 total) (S4 Table). The top performing compounds from this initial screen were re-tested with MTT viability assays against DU145-TXR cells, as described below.
(§3) MTT assays measure the reduction of yellow, water soluble 3-(4,5-dimethylthiazol-2-yl)-2,5-diphenyltetrazolium bromide (MTT) to blue, insoluble formazan crystals by cellular reductase processes in living cells. Cells were trypsinized from monolayers and seeded in complete medium in 96 well plates. Cancerous cell lines (DU145, DU145-TXR, A2780, A2780-ADR) were seeded at 3,000 cells per well in complete RPMI medium. The non-cancerous HFL1 line was seeded at 4,000 cells per well in complete F12K medium, in collagen-treated plates (Collagen Type 1, Gibco). Cells were incubated with experimental compounds for 48 hours at 37 °C and 5% CO2 in a humidified incubator. At 48 hours, MTT was added (20 µL/well of 5 mg/mL MTT in PBS) to each well. After incubation for 4 hours, the media was removed, and the formazan crystals were dissolved in 100 µL DMSO per well. Plates containing the semi-adherent A2780 or A2780-ADR lines were spun at 1400 rpm for 3 minutes prior to aspiration of media, and the addition of DMSO. Plates were shaken for 10 minutes at 500 rpm on an Orbital shaker (LabDoctor from MidSci, St Louis, MO). The absorbance was measured at 570 nm using a Bio-Tek Cytation 5 (Bio-Tek, Winooski, VT). The measured absorbance value was correlated with the number of metabolically active cells in that well, corrected for absorbance of media. […]

Experiment [2] concerns A2780 cells. Briefly: MTT viability assay, parental A2780 cells, with or without PTX. Conditions: A2780 cells; for Mean % Survival: mean of 8 or 12 samples; for % Survival (individual sample): single samples. On the procedure:
as §1, §2, §3
Background: Tetrazolium assays rely on reduction of a dye to a coloured formazan, in cell work by metabolically active cells.

The test system of experiment [3] is DU145-TXR cells. Briefly: MTT viability assay, reversal of MDR (re-sensitization to paclitaxel) in P-gp overexpressing DU145-TXR cells. Conditions: DU145-TXR; for % Survival, mean: mean of 8 samples. On the procedure: as §1, §2, §3
For experiment [4], the system named is DU145 cells. Briefly: MTT viability assay, non-P-gp overexpressing DU145 parental line, with or without PTX. Conditions: DU145 cells, 48 h. The method, then: as §1, with “In addition to the aforementioned cell lines, the chemotherapeutic sensitive A2780 ovarian cancer cells (93112519, Sigma) and the multidrug resistant A2780-ADR (93112520, Sigma) were maintained in complete RPMI media consisting of RPMI-1640 with L-glutamine, 10% fetal bovine serum (FBS; Corning), 100 U/mL penicillin and 100 μg/mL streptomycin in a humidified incubator at 37 °C and 5% CO2.” left out
Culture of the DU145, DU145-TXR, and HFL1 cell lines was performed as described in [8]. Culture of the A2780 and A2780-ADR cell lines was performed as described in [9]. MTT assays were performed as described in [8] with minor modifications. […] Data represent the mean of two separate experiments, with n = 3 samples per experiment (n = 6 total) (S4 Table).
MTT assays measure the reduction of yellow, water soluble 3-(4,5-dimethylthiazol-2-yl)-2,5-diphenyltetrazolium bromide (MTT) to blue, insoluble formazan crystals by cellular reductase processes in living cells. Cells were trypsinized from monolayers and seeded in complete medium in 96 well plates. Cancerous cell lines (DU145, DU145-TXR, A2780, A2780-ADR) were seeded at 3,000 cells per well in complete RPMI medium. The non-cancerous HFL1 line was seeded at 4,000 cells per well in complete F12K medium, in collagen-treated plates (Collagen Type 1, Gibco). Cells were incubated with experimental compounds for 48 hours at 37 °C and 5% CO2 in a humidified incubator. At 48 hours, MTT was added (20 µL/well of 5 mg/mL MTT in PBS) to each well. After incubation for 4 hours, the media was removed, and the formazan crystals were dissolved in 100 µL DMSO per well. Plates containing the semi-adherent A2780 or A2780-ADR lines were spun at 1400 rpm for 3 minutes prior to aspiration of media, and the addition of DMSO. Plates were shaken for 10 minutes at 500 rpm on an Orbital shaker (LabDoctor from MidSci, St Louis, MO). The absorbance was measured at 570 nm using a Bio-Tek Cytation 5 (Bio-Tek, Winooski, VT). The measured absorbance value was correlated with the number of metabolically active cells in that well, corrected for absorbance of media. The percent of cell viability (termed ‘survival’ here) was calculated as a percentage of survival of the control condition, which refers to vehicle-treated (DMSO as vehicle) cells, or vehicle-and-chemotherapeutic-treated cells, if testing a compound’s ability to re-sensitize cells to a chemotherapeutic. Percent survival was calculated using the following equation:
% Survival=100 × absorbance of experimental cells/mean absorbance of control treated cells
For DU145-TXR, DU145, HFL1 and A2780 cells – data are the mean ± one standard deviation, 8 samples per compound, from at least two independent trials per compound. […] For A2780-ADR cells, data are the mean ± one standard deviation with 12 samples per compound, from at least two independent trials per compound.
67 compounds were chosen from computational screens for testing in vitro. A) DU145-TXR cells were exposed to 15 µM experimental compound with or without 500 nM of the P-gp substrate and chemotherapeutic paclitaxel (PTX).

Where [5] appears, read: single samples, 2 trials x 4 samples, listed as VPL.

Where “and” joins values, the source holds several entries; their conditions need not be identical. Identical values can stand only once.

The record followed here is article PMC12349723, “Computationally accelerated identification of P-glycoprotein inhibitors” (PLOS One, 2025).

Take `COc1ccc(CCN(C)CCCC(C#N)(c2ccc(OC)c(OC)c2)C(C)C)cc1OC` (stereo not drawn) [VER]: the “Mean % Survival” value in experiment [1] (15 µM compound + 500 nM PTX) is listed as 52.3%; in experiment [1] (15 µM compound alone) it was 84.8%; in experiment [2] (15 µM compound + 500 nM PTX) it was 14.9%; in experiment [2] (15 µM compound alone), 75.9%. The “% Survival (individual sample)” value is 58% and 57% and 53% and 42% and 41% and 51% and 47% in experiment [1] (15 µM compound + 500 nM PTX); 80% and 82% and 85% and 92% and 94% and 95% and 89% and 81% and 77% and 66% in experiment [1] (15 µM compound alone); 17% and 18% and 12% and 50% and 11% and 10% and 9% in experiment [2] (15 µM compound + 500 nM PTX); 74% and 75% and 86% and 67% and 64% and 83% and 79% in experiment [2] (15 µM compound alone). Also, the “% Survival, mean” value came to 86.2% in experiment [3] (15 µM Compound Alone) and 21.9% in experiment [3] (15 µM compound + 500 nM PTX (Paclitaxel, Taxol)). The “% Survival” value in experiment [3] (15 µM Compound Alone, trial 1, sample 1) is given as 98%; in experiment [3] (15 µM Compound Alone, trial 1, sample 2), 95%; in experiment [3] (15 µM Compound Alone, trial 1, sample 3), 96%; in experiment [3] (15 µM Compound Alone, trial 1, sample 4), 90%; in experiment [3] (15 µM Compound Alone, trial 2, sample 1), 79%; in experiment [3] (15 µM Compound Alone, trial 2, sample 2), 74%. Also, the “% Survival” value in experiment [3] (15 µM Compound Alone, trial 2, sample 3) is on record as 72%; in experiment [3] (15 µM Compound Alone, trial 2, sample 4), 85%; in experiment [3] (15 µM compound + 500 nM PTX (Paclitaxel, Taxol), trial 1, sample 1), 19%; in experiment [3] (15 µM compound + 500 nM PTX (Paclitaxel, Taxol), trial 1, sample 2) it was 23%; in experiment [3] (15 µM compound + 500 nM PTX (Paclitaxel, Taxol), trial 1, sample 3) it was 29%; in experiment [3] (15 µM compound + 500 nM PTX (Paclitaxel, Taxol), trial 1, sample 4), 18%. The “% Survival” value is 23% in experiment [3] (15 µM compound + 500 nM PTX (Paclitaxel, Taxol), trial 2, sample 1); 20% in experiment [3] (15 µM compound + 500 nM PTX (Paclitaxel, Taxol), trial 2, sample 2); 23% in experiment [3] (15 µM compound + 500 nM PTX (Paclitaxel, Taxol), trial 2, sample 3); 21% in experiment [3] (15 µM compound + 500 nM PTX (Paclitaxel, Taxol), trial 2, sample 4).
As for `COc1ccc(CCN(C)CCCC(C#N)(c2ccc(OC)c(OC)c2)C(C)C)cc1OC` (stereo not drawn) [Verapamil, reference compound], in experiment [4] (mean of 8 samples), the “% Survival, Mean, 15 µM compound + 500 nM PTX” value came out at 8.6%. For the same compound, in experiment [4] (setting [5]), the “% Survival, 15 µM Compound alone (individual samples)” value was 53% and the “% Survival, 15 µM compound + 500 nM PTX (individual samples)” value turned out to be 7%. Further, in experiment [4] (Homo sapiens, DU-145, 48 h, mean of 8 samples, read-out: % Survival, Mean, 15 µM Compound alone), the viability at 15 µM was found to be 45.5%.
